For one data set, the target named is T1, ABCB19 (Arabidopsis thaliana, UniProt Q9LJX0).
T1 sequence (Q9LJX0 1-1252): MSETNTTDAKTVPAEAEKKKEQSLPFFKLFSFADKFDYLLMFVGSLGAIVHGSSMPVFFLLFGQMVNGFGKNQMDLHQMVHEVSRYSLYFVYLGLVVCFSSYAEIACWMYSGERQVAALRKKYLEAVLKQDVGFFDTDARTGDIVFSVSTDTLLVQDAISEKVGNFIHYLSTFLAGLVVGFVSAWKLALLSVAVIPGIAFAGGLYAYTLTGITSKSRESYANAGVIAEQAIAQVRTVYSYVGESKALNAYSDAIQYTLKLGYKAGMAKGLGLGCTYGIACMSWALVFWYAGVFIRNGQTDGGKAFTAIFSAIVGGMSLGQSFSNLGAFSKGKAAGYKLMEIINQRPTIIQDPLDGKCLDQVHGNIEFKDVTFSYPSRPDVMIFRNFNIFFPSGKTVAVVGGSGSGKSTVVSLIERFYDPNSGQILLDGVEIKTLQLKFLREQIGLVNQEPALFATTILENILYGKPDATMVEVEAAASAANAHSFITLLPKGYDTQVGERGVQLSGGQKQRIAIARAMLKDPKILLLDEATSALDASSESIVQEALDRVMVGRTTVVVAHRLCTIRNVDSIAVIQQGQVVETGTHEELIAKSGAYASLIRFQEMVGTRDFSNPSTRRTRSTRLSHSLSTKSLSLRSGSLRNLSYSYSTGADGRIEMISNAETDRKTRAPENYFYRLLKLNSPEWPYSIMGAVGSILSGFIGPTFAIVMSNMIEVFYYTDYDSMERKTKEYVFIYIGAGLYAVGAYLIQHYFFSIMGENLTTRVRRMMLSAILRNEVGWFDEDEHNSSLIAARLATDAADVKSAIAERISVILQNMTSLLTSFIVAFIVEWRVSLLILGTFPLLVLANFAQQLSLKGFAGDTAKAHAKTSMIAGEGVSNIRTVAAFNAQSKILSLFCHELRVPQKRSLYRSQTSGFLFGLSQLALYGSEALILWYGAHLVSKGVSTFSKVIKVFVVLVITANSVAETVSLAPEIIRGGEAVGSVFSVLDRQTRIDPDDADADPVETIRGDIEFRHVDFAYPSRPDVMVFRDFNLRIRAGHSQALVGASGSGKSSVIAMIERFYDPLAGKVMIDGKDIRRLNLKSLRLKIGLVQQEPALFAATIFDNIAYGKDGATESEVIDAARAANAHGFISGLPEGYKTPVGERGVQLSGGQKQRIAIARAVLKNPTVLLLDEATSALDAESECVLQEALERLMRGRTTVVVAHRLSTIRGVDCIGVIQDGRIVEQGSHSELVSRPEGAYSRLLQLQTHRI
Briefly: cryo-EM structure at […] Å in nanodiscs. It counts as biochemical.

Substrate in the data set “purified protein”: Nc1ncnc2c1ncn2[C@@H]1O[C@H](COP(=O)(O)OP(=O)(O)OP(=O)(O)O)[C@@H](O)[C@H]1O
The data set is described as follows: purified protein. In kind it is biochemical, Arabidopsis thaliana. The settings on record: Mg2+ ATP-binding sites of the NBDs.

With `CCN(CC)c1ccc(C(=O)c2ccccc2C(=O)O)c(O)c1` [BUM, 2-[4-(Diethylamino)-2-hydroxybenzoyl]benzoic acid], the half-inhibitory concentration (IC50) (in general, the concentration at which inhibition is half-maximal) against ABCB19 came to 890 µM.

B1: ABCB19 (Arabidopsis thaliana) (protein)
chain: T1 sequence (Q9LJX0 1-1252)
For the molecule B1, the Michaelis-Menten constant (Km) (as a rule, the substrate concentration at which the rate is half of its maximum) in the data set “purified protein” was 1080 µM.

For the origin of these results see paper PMC12164952 (Science Advances, 2025).
